Test results: the NIST ThermoML archive (doi:10.1016/j.jct.2015.01.014)

Conditions: Liquid, Transpiration method

OCCCO [propan-1,3-diol]
Conditions	vapor or sublimation pressure [kPa]
292.5 K	0.00167
296.4 K	0.00239
300.4 K	0.00346
306.3 K	0.00584
338.7 K	0.08145
344.3 K	0.1208
346.4 K	0.139
